What is called IC50 is the concentration that inhibits the measured activity by half.

Each structure is given as a SMILES string. Where a name gives a salt, the structure may show the parent alone.

The source of these data is patent US8563542B2 (Cyclacel Limited, priority 2007, dated 2013).

The first test deals with PLK1 (Homo sapiens, UniProt P53350). The test can be described thus: PLK1 protein kinase assay (CDC25C phosphorylation, [γ-32P]-ATP). The test is classed as biochemical. To be noted: Table 2, PLK1 IC50; class symbols; read-out: PLK1 IC50.
Sequence of PLK1 (P53350 whole entry): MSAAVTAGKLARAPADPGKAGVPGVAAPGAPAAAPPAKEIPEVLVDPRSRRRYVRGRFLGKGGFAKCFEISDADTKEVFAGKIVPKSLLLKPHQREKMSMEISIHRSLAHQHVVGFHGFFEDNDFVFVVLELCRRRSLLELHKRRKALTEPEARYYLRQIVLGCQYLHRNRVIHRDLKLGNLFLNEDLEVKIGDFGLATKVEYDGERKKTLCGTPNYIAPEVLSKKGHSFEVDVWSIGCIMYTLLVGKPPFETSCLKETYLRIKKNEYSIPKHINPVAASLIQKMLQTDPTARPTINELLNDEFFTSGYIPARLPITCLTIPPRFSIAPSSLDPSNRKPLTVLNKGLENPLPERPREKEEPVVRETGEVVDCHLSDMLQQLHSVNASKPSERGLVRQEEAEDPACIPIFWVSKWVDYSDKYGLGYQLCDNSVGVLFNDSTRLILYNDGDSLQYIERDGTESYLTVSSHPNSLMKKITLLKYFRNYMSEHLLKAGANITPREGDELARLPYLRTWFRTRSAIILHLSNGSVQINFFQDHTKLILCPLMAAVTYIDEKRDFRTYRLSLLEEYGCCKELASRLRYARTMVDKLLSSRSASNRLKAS
With `COc1cc(C(=O)NC2CCN(C)CC2)ccc1Nc1ncc2c(n1)N(C1CCCC1)CC1(CC1)C(=O)N2C` [compound 341, 4-(9-Cyclopentyl-5-methyl-6-oxo-6,7,8,9-tetrahydro-5H-spiro[pyrimido[4,5-b][1,4]diazepin-3,1′-cyclopropane]-2-ylamino)-3-methoxy-N-(1-methyl-piperidin-4-yl)-benzamide mesylate], the IC50 is below 100 nM.

For `COc1cc(C(=O)NC2CCN(CC(=O)O)CC2)ccc1Nc1ncc2c(n1)N(C1CCCC1)CCC(=O)N2C` [compound 343], the half-maximal inhibitory concentration (IC50) is below 1000 nM.

Take `COc1cc(C(=O)NC2CCN(C(C)C)CC2)ccc1Nc1ncc2c(n1)N(C1CCCC1)CCC(=O)N2C` [compound 344, 4-(9-Cyclopentyl-5-methyl-6-oxo-6,7,8,9-tetrahydro-5H-pyrimido[4,5-b][1,4]diazepin-2-ylamino)-N-(1-isopropyl-piperidin-4-yl)-3-methoxy-benzamide]: the IC50 is below 100 nM.

The target of a further test is T1, AA (Homo sapiens, UniProt O14965).
T1 sequence (O14965 1-403): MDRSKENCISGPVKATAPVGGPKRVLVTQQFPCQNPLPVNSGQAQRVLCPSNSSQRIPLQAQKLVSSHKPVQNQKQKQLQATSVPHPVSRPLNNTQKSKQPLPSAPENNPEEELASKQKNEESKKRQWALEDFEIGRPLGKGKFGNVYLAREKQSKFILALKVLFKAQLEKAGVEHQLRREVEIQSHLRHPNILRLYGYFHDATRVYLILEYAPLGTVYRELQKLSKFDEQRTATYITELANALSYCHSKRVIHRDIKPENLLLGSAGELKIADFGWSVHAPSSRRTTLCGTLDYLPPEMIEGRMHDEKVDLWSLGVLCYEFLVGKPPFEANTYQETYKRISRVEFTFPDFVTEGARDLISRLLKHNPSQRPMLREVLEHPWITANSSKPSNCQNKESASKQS
As to the kind of experiment: AA IC50 (Table 1; no method given). The note with it: Table 1; read-out: AA IC50. The test is classed as biochemical.
`COc1cc(C(=O)O)ccc1Nc1ncc2c(n1)N(C1CCCCC1)CCC(=O)N2` [compound 9, 4-(9-Cyclohexyl-6-oxo-6,7,8,9-tetrahydro-5H-pyrimido[4,5-b][1,4]diazepin-2-ylamino)-3-methoxy-benzoic acid]: the half-inhibitory concentration (IC50) was 1000 to 10000 nM.

Still in this test, the particulars now being: Table 2, AurA IC50; class symbols; read-out: AurA IC50.
On to `CN1C(=O)CCN(C(C)(C)C)c2nc(Nc3ccc(C(=O)O)cc3)ncc21` [compound 43, 4-(9-tert-Butyl-5-methyl-6-oxo-6,7,8,9-tetrahydro-5H-pyrimido[4,5-b][1,4]diazepin-2-ylamino)-benzoic acid], for which the IC50 was below 1000 nM.

As to `COc1cc(C(=O)NC2CCN(C)CC2)ccc1Nc1ncc2c(n1)N(Cc1ccc(OC)c(OC)c1)CC(C)C(=O)N2C` (stereo not drawn) [compound 44, 4-[9-(3,4-Dimethoxy-benzyl)-5,7-dimethyl-6-oxo-6,7,8,9-tetrahydro-5H-pyrimido[4,5-b][1,4]diazepin-2-ylamino]-3-methoxy-N-(1-methyl-piperidin-4-yl)-benzamide], the IC50 is below 10000 nM.

As to `COc1ccc(CN2CC(C)C(=O)N(C)c3cnc(Nc4ccc(C(=O)O)cc4)nc32)cc1OC` (stereo not drawn) [compound 45, 4-[9-(3,4-Dimethoxy-benzyl)-5,7-dimethyl-6-oxo-6,7,8,9-tetrahydro-5H-pyrimido[4,5-b][1,4]diazepin-2-ylamino]-benzoic acid], the IC50 is below 10000 nM.

In the case of `CN1CCC(NC(=O)c2ccc(Nc3ncc4c(n3)N(C3CCCC3)CCC(=O)N4C)cc2)CC1` [compound 64, 4-(9-Cyclopentyl-5-methyl-6-oxo-6,7,8,9-tetrahydro-5H-pyrimido[4,5-b][1,4]diazepin-2-ylamino)-N-(1-methyl-piperidin-4-yl)-benzamide], the IC50 was below 100 nM.

As for `Cc1cc(Nc2ncc3c(n2)N(C2CCCC2)CCC(=O)N3C)ccc1Cl` [compound 72, 2-(4-Chloro-3-methyl-phenylamino)-9-cyclopentyl-5-methyl-5,7,8,9-tetrahydro-pyrimido[4,5-b][1,4]diazepin-6-one], the IC50 is below 1000 nM.

For the compound `CN1C(=O)CCN(c2ccccc2F)c2nc(Nc3ccc4c(c3)CS(=O)(=O)C4)ncc21` [compound 73, 2-(2,2-Dioxo-2,3-dihydro-1H-2lambda*6*- benzo[c]thiophen-5-ylamino)-9-(2-fluoro-phenyl)-5-methyl-5,7,8,9-tetrahydro-pyrimido[4,5-b][1,4]diazepin-6-one], the IC50 is below 100 nM.

Consider `CN1C(=O)CCN(c2ccccc2)c2nc(Nc3ccc4c(c3)CS(=O)(=O)C4)ncc21` [compound 75, 2-(2,2-Dioxo-2,3-dihydro-1H-2lambda*6*- benzo[c]thiophen-5-ylamino)-5-methyl-9-phenyl-5,7,8,9-tetrahydro-pyrimido[4,5-b][1,4]diazepin-6-one], for which the IC50 is below 100 nM.

In the case of `CCC(CC)N1CCC(=O)N(C)c2cnc(Nc3ccc4c(c3)CS(=O)(=O)C4)nc21` [compound 79, 2-(2,2-Dioxo-2,3-dihydro-1H-2lambda*6*- benzo[c]thiophen-5-ylamino)-9-(1-ethyl-propyl)-5-methyl-5,7,8,9-tetrahydro-pyrimido[4,5-b][1,4]diazepin-6-one], the IC50 is below 100 nM.

Take `CC(C)C1CC(=O)N(C)c2cnc(Nc3ccc4c(c3)CS(=O)(=O)C4)nc2N1C1CCCC1` (stereo not drawn) [compound 80, 9-Cyclopentyl-2-(2,2-dioxo-2,3-dihydro-1H-2lambda*6*-benzo[c]thiophen-5-ylamino)-8-isopropyl-5-methyl-5,7,8,9-tetrahydro-pyrimido[4,5-b][1,4]diazepin-6-one]: the IC50 is below 1000 nM.

On to `CN1C(=O)CCN(C2CCOCC2)c2nc(Nc3ccc4c(c3)CS(=O)(=O)C4)ncc21` [compound 81, 2-(2,2-Dioxo-2,3-dihydro-1H-2lambda*6*- benzo[c]thiophen-5-ylamino)-5-methyl-9-(tetrahydro-pyran-4-yl)-5,7,8,9-tetrahydro-pyrimido[4,5-b][1,4]diazepin-6-one], for which the IC50 was below 1000 nM.

Turning to `CN1C(=O)CCN(Cc2ccccc2)c2nc(Nc3ccc4c(c3)CS(=O)(=O)C4)ncc21` [compound 82, 9-Benzyl-2-(2,2-dioxo-2,3-dihydro-1H-2lambda*6*-benzo[c]thiophen-5-ylamino)-5-methyl-5,7,8,9-tetrahydro-pyrimido[4,5-b][1,4]diazepin-6-one], the IC50 is below 1000 nM.

Consider `CN1CCN(S(=O)(=O)c2ccc(Nc3ncc4c(n3)N(C3CCCC3)CCC(=O)N4C)cc2)CC1` [compound 105, 9-Cyclopentyl-5-methyl-2-[4-(4-methyl-piperazine-1-sulfonyl)-phenylamino]-5,7,8,9-tetrahydro-pyrimido[4,5-b][1,4]diazepin-6-one], for which the IC50 was below 1000 nM.

With `CN1C(=O)CCN(CC2CC2)c2nc(Nc3ccc4c(c3)CS(=O)(=O)C4)ncc21` [compound 114, 9-Cyclopropylmethyl-2-(2,2-dioxo-2,3-dihydro-1H-2lambda*6*-benzo[c]thiophen-5-ylamino)-5-methyl-5,7,8,9-tetrahydro-pyrimido[4,5-b][1,4]diazepin-6-one], the IC50 was below 100 nM.

For the compound `CC(C)CCN1CCC(=O)N(C)c2cnc(Nc3ccc4c(c3)CS(=O)(=O)C4)nc21` [compound 116, 2-(2,2-Dioxo-2,3-dihydro-1H-2lambda*6*- benzo[c]thiophen-5-ylamino)-5-methyl-9-(3-methyl-butyl)-5,7,8,9-tetrahydro-pyrimido[4,5-b][1,4]diazepin-6-one], the IC50 was below 1000 nM.

Regarding `CN1C(=O)C2(CCCC2)CN(C2CCCC2)c2nc(Nc3ccc4c(c3)CS(=O)(=O)C4)ncc21` [compound 118, (9-Cyclopentyl-2-(2,2-dioxo-2,3-dihydro-1H-2lambda*6*-benzo[c]thiophen-5-ylamino)5-methyl-6-oxo-6,7,8,9-tetrahydro-5H-spiro[pyrimido[4,5-b][1,4]diazepin-3,1′-cyclopentane]], the IC50 was below 1000 nM.

In the case of `CCC(CC)N1CCC(=O)N(CC)c2cnc(Nc3ccc4c(c3)CS(=O)(=O)C4)nc21` [compound 120, 2-(2,2-Dioxo-2,3-dihydro-1H-2lambda*6*- benzo[c]thiophen-5-ylamino)-5-ethyl-9-(1-ethyl-propyl)-5,7,8,9-tetrahydro-pyrimido[4,5-b][1,4]diazepin-6-one], the IC50 is below 100 nM.

Turning to `CN1C(=O)CCN(C(C)(C)C)c2nc(Nc3ccc4c(c3)CS(=O)(=O)C4)ncc21` [compound 121, 9-tert-Butyl-2-(2,2-dioxo-2,3-dihydro-1H-2lambda*6*-benzo[c]thiophen-5-ylamino)-5-methyl-5,7,8,9-tetrahydro-pyrimido[4,5-b][1,4]diazepin-6-one], the IC50 is below 1000 nM.
